Experimental data as given in paper PMC8434204, “Discrimination of Methionine Sulfoxide and Sulfone by Human Neutrophil Elastase” (Molecules, 2021).
Read-outs that look alike come from different tables or passages of the source. Square brackets hold non-standard residues; d marks the D form. Peptide text beside a SMILES is read from it. * marks the point of attachment. Met(O2) = CS(=O)(=O)CC[C@H](N)C(=O)O; Met(O) = CS(=O)CC[C@H](N)C(=O)O; pNA = O=[N+]([O-])c1ccc(N*)cc1; MeOSuc = COC(=O)CCC(=O)*

Tests used:
[1] = target: T1, Human neutrophil elastase (HNE) (Homo sapiens, UniProt P08246); assay: Inhibition of HNE proteolysis by peptide aldehyde inhibitors; type: biochemical; settings: for Ki: 10 nM active HNE, 100 nM Ac-RM(O2)AA-pNA substrate (Figure 3), 20 min complex formation at RT, 405 nm, Morrison equation for tight-binding inhibitors, three replicate experiments of triplicate measurements; for Relative Potency (fold inhibition enhancement relative to Ac-RMAV-H): ratio of Ki values relative to non-oxidised Ac-RMAV-H
T1 construct: HNE purified from purulent human sputum (Elastin Products Company, Owensville, MO, USA); purchased Elastin Products Company, Owensville, MO, USA; host or cells: purulent human sputum (natural source)
T1 sequence (P08246 30-247 limits assumed): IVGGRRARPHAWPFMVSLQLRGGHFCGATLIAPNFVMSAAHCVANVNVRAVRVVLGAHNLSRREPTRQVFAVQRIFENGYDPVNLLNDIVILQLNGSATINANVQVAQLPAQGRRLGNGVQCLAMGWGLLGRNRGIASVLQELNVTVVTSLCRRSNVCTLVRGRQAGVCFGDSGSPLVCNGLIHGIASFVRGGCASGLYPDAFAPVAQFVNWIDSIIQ
Procedure: Figure 3 Dose-response plot of Ac-RMAV-H peptide aldehyde inhibitor variants containing differing oxidation states of the P3 methionine residue. All assays contained 10 nM active HNE and 100 nM Ac-RM(O2)AA-pNA substrate. Data are reported as percent activity remaining compared to uninhibited controls, and data points represent the mean observed from three replicate experiments of triplicate measurements. Error bars show SEM. Where not visible, error bars are smaller than the pictured data point.
(§1) For substrate library kinetic assay screen, reactions were initiated by addition of HNE purified from purulent human sputum (Elastin Products Company, Owensville, MO, USA) to triplicate microplate wells containing each substrate, and the rate of reaction determined spectrophotometrically at 405 nm. Final concentrations were 300 µM substrates and 1 µg/mL HNE in 250 µL assay buffer (100 mM Tris pH 8, 50 mM NaCl, 10% DMF, 0.05% Triton X-100). For in-depth assays of candidate substrates and inhibitors, the active site concentration of HNE was first determined by titration with A1AT. Briefly, 250 nM A1AT was serially diluted in a 96-well microplate to provide a final assay volume of 250 µL. A total of 2.5 µL of HNE stock solution (100 µg/mL) was added to each well and complex formation was allowed to proceed over a period of 20 min at RT. Assays were initiated by addition of Ac-RM(O2)PA-pNA substrate, monitoring the evolution of free para-nitroanilide at 405 nm for 90 s again at RT. Kinetic assays of synthesized pNA substrates were carried out similarly omitting the A1AT and serially diluting the substrates, KM and Vmax values were determined by GraphPad Prism 5.01 (La Jolla, CA, USA) Michaelis–Menten non-linear regression. Assays with peptide aldehyde inhibitors were carried out as with the active site titration. Inhibition constants were calculated in GraphPad Prism by non-linear regression using the Morrison equation for tight-binding inhibitors.

[2] = target: T1, Human neutrophil elastase (HNE); settings: literature value; read-out: KM, previously published value; cited from earlier work
Excerpt: The standard substrate MeOSuc-AAPV-pNA was also synthesised to provide a benchmark against other studies. […] Acetylated forms of the P4 arginine substrates were synthesised to assess the effect of a charged N-termin ...

[3] = target: T1, Human neutrophil elastase (HNE); assay: Kinetic assays of synthesized pNA substrates (Michaelis-Menten); type: biochemical
Procedure: Figure 2 Substrate concentration versus velocity plot of candidate pNA substrates containing a P1 valine residue (A), or a P1 alanine residue (B), assayed against 3 nM active HNE. […] Data points represent the average rate observed from three replicate experiments of triplicate measurements. […] Error bars show SEM. Where not visible, error bars are smaller than the pictured data point.
as §1

| Compound | Ki [1] | Relative Potency (fold inhibition enhancement relative to Ac-RMAV-H) [1] | Km [2] | kcat ([3]; 3 nM active HNE (purified from purulent human sputum), 100 mM Tris pH 8, 50 mM NaCl, 10% DMF, 0.05% Triton X-100, RT, 405 nm, Michaelis-Menten non-linear regression, three replicate experiments of triplicate measurements) | Km ([3]; 3 nM active HNE, 100 mM Tris pH 8, 50 mM NaCl, 10% DMF, 0.05% Triton X-100, RT, 405 nm, Michaelis-Menten non-linear regression, ± SEM) | kcat/KM ([3]; catalytic efficiency calculated from kcat and KM, 3 nM active HNE) |
| --- | --- | --- | --- | --- | --- | --- |
| CC(=O)N[C@@H](CCCNC(=N)N)C(=O)N[C@@H](CCS(C)(=O)=O)C(=O)N[C@@H](C)C(=O)N[C@H](C=O)C(C)C [Ac-RM(O2)AV-H] (Ac-R[Met(O2)]AV-aldehyde) | 0.147 µM | 49.4 | – | – | – | – |
| CC(=O)N[C@@H](CCCNC(=N)N)C(=O)N[C@@H](CC[S+](C)[O-])C(=O)N[C@@H](C)C(=O)N[C@H](C=O)C(C)C (stereo partly shown) [Ac-RM(O)AV-H] (Ac-R[Met(O)]AV-aldehyde) | 5.55 µM | 1.3 | – | – | – | – |
| CSCC[C@H](NC(=O)[C@H](CCCNC(=N)N)NC(C)=O)C(=O)N[C@@H](C)C(=O)N[C@H](C=O)C(C)C [Ac-RMAV-H] (Ac-RMAV-aldehyde) | 7.27 µM | 1 | – | – | – | – |
| MeOSuc-AAPV-pNA (SMILES COC(=O)CCC(=O)N[C@@H](C)C(=O)N[C@@H](C)C(=O)N1CCC[C@H]1C(=O)N[C@H](C(=O)Nc1ccc([N+](=O)[O-])cc1)C(C)C) [standard HNE substrate synthesised as benchmark against other studies] | – | – | 140 µM | 2.90 s⁻¹ | 153 ± 17.6 µM | 18900 M⁻¹ s⁻¹ |
